System: bone marrow-derived macrophages (MΦ^BM)
Test: Fibrillar Aβ1-42 phagocytosis assay in bone marrow-derived macrophages
Assay type: cell-based, mouse
Protocol: Lyophilized non-fluoro amyloid-β1-42 peptide (#20276; Anaspec) was initially monomerized by dissolving it in ice-cold HFIP (hexafluoroisopropanol) (#52512; Sigma) to a final concentration of 1 mM and then aliquoted in sterile siliconized microcentrifuge tubes. The HFIP was first evaporated while in the sterile hood and then under vacuum conditions in a SpeedVac for 2 h to remove any trace of HFIP; the peptide film was stored at −20° C. until use. To induce fibril formation, fluoro (HiLyte647; #64161; Anaspec) and non-fluoro amyloid-β1-42 films were resuspended in media to which 10% of sterile NaOH 60 mM was first added and the media were vortexed for 30 s. Then, a sterile 45% H2O and a sterile 45% solution of 20 mM NaH2PO4+Na2HPO4 (pH 7.4) were added, and the media were vortexed again and incubated on a shaker for 2 weeks at 37° C. Pre-formed amyloid-β1-42 fibrils were then sonicated for 60 s and diluted to 100 nM using the same media prior to the phagocytosis assay.
To test amyloid-β phagocytosis by macrophage, in repeated experiments monocytes were isolated from the bone marrow of wild-type mice (n=18 mice) and differentiated into macro-phage by 7-day cultivation in complete RPMI-1640 medium (#21870; Life Technologies) with 10% serum and 20 ng/ml MCSF (#315-02; PeproTech). Bone marrow-derived macrophages (MΦBM) were generated from femurs and tibiae cultured for 6-7 days in complete RPMI 1640 medium (Life Technologies) with 10% FBS, 100 U/ml penicillin, 100 μg/ml streptomycin, 2 mM L-glutamine and 20 ng/ml MCSF (PeproTech). Primary cultures of macrophage were then plated at 1.2×10^5 cells per well (3-4 wells for each condition) in 24-well tissue-culture plates on glass cover-slips overnight. Next, macrophages were either treated with 30 μg/ml GA (Copaxone®; TEVA Neuroscience), Brefeldin A (BFA; Sigma, 1X), or 10 μM Minocycline (Sigma) for the duration of 1, 3, or 24 h, or not treated (control group). Before addition of fibrillar amyloid-β1-42, the cells were chilled in a 4° C. ice bath for 5 min; immediately after addition of the preformed fibrillar amyloid-β1-42 (100 nM), the plates were centrifuged at 515g in 25° C. followed by incubation at 37° C. for 30 or 60 min. The cells were then rinsed with amyloid-β-free medium to remove non-incorporated amyloid-β and later washed twice with PBS. Methanol (99.8%) at −20° C. for 20 min or 4% paraformaldehyde at room temperature for 12 min was used for fixation of the cells followed by repeated washes with PBS. […] The fluorescent signal and its total area were determined and quantified by the conversion of individual images to greyscale and standardizing to baseline using histogram-based thresholds with NIH ImageJ software. […]

glatiramer acetate [GA]
increase of Aβ phagocytosis (24 hours treatment, then fAβ1-42 for 30 min, quantitative ICC (FIG. 16E)): 2.5 fold | increase of fibrillar Aβ1-42 uptake in MΦ^BM (GA pretreated, 100 nM fibrillar Aβ1-42 for 30 min, qICC and ELISA): 2.5-2.85 fold | rise in fAβ1-42 uptake (GA-treated MΦ (FIG. 5D)): 2.8 fold

From patent US11779600B2, “Methods of treating or preventing alzheimer's disease and associated conditions” (CEDARS-SINAI MEDICAL CENTER, priority 2016, dated 2023)
